Measured values: patent publication US20240016781A1, “TREATMENT OF KRAS MUTANT CANCERS” (MEI Pharma, Inc., priority 2020, published 2024)
Read-outs that look alike come from different tables or passages of the source.

Assays:
[1] = tested on: H-460 (NSCLC, KRAS Q61H); assay: Murine xenograft tumor growth inhibition, H-460; type: in vivo, SCID mice; conditions: H-460 xenograft; orally 50, 100, or 200 mg/kg OD for 11-14 days; all doses
Protocol: (§1) Voruciclib is an oral inhibitor of CDKs 9, 4, 6, and 1 currently being tested in Phase 1B clinical trials for B-cell malignancies and acute myeloid leukemia. Voruciclib inhibition of CDK9 leads to decreased expression of transcriptional targets of RNA Pol II, such as Mcl1 and MYC. To test whether Voruciclib could be effective in cancers driven by dysregulated KRAS-MYC signaling, ˜20 cancer cell lines with KRAS mutations (G12A, G12C, G12D, G12S, G12V, G13C, G13D, Q61H) were treated in preclinical studies with Voruciclib. MTS and Cell Titer Glo assays were used to monitor growth in vitro. […] To investigate MYC protein stability, MIA PACA-2 (G12C) cells were treated with 4 μM Voruciclib for 5-240 min, followed by SDS-PAGE and Western Blotting analysis with α-MYC and α-pSer62-MYC antibodies. […] A 60% decrease in pSer62 was observed after 5 min that reached 80% by 60 min. […] The ability of Voruciclib to inhibit tumor growth in vivo was also tested in murine xenograft models. KRAS mutant human cancer cells HCT-116 (CRC, KRAS G13D), SW-480 (CRC, KRAS G12V), and H-460 (NSCLC, KRAS Q61H) were injected subcutaneously into SCID mice. Once tumors reached 5-10 mm in diameter, Voruciclib or vehicle were administered orally at 50, 100, or 200 mg/kg OD for 11-14 days. Tumors were measured every 2-3 days, and growth inhibition relative to control was calculated. […]

[2] = tested on: Solid Tumors; assay: Monotherapy Phase 1 study in solid tumors, 2 weeks on/1 week off schedule; type: in vivo, human
[3] = tested on: cancer cell lines with KRAS mutations (G12A, G12C, G12D, G12S, G12V, G13C, G13D, Q61H); assay: MTS and Cell Titer Glo growth assays in ~20 KRAS mutant cancer cell lines; type: cell-based; conditions: ~20 cancer cell lines with KRAS mutations
Protocol: as §1

[4] = in vivo; conditions: SCID, mouse
Protocol: Animals were randomized into 2 groups when tumors reached 100 mm diameter. Group A assigned single dosing. […] Drug concentration was measured in tumor and plasma after last dose at the following time points: 0, 4, 8, 24, 48, 72 hrs. […] Concentration of voruciclib in plasma is in units of μg/ml and in μg/g for tumors.

[5] = tested on: SW-480 (CRC, KRAS G12V); assay: Murine xenograft tumor growth inhibition, SW-480; type: in vivo, SCID mice; conditions: SW-480 xenograft; orally 50, 100, or 200 mg/kg OD for 11-14 days; all doses
Protocol: as §1

[6] = tested on: MYC (pSer62 and total) in MIA PACA-2 (G12C) cells; assay: Western blot of MYC and pSer62-MYC in MIA PACA-2 cells; type: cell-based; conditions: 4 μM Voruciclib
Protocol: Voruciclib is an oral inhibitor of CDKs 9, 4, 6, and 1 currently being tested in Phase 1B clinical trials for B-cell malignancies and acute myeloid leukemia. Voruciclib inhibition of CDK9 leads to decreased expression of transcriptional targets of RNA Pol II, such as Mcl1 and MYC. To test whether Voruciclib could be effective in cancers driven by dysregulated KRAS-MYC signaling, ˜20 cancer cell lines with KRAS mutations (G12A, G12C, G12D, G12S, G12V, G13C, G13D, Q61H) were treated in preclinical studies with Voruciclib. MTS and Cell Titer Glo assays were used to monitor growth in vitro. […] To investigate MYC protein stability, MIA PACA-2 (G12C) cells were treated with 4 μM Voruciclib for 5-240 min, followed by SDS-PAGE and Western Blotting analysis with α-MYC and α-pSer62-MYC antibodies. […] A 60% decrease in pSer62 was observed after 5 min that reached 80% by 60 min. […] The ability of Voruciclib to inhibit tumor growth in vivo was also tested in murine xenograft models. KRAS mutant human cancer cells HCT-116 (CRC, KRAS G13D), SW-480 (CRC, KRAS G12V), and H-460 (NSCLC, KRAS Q61H) were injected subcutaneously into SCID mice. Once tumors reached 5-10 mm in diameter, Voruciclib or vehicle were administered orally at 50, 100, or 200 mg/kg OD for 11-14 days. Tumors were measured every 2-3 days, and growth inhibition relative to control was calculated.
FIG. 32—Voruciclib causes rapid inhibition MYC pSer62 phosphorylation and reduces MYC protein levels. Immunoblot analyses of c-MYC, phospho-c-MYC (Ser62), and actin in MIA Paca-2 KRAS G12C mutant PDAC cells. (FIG. 32A) Cells were treated with vehicle control, voruciclib (VOR, 4 μM), or the AZD4573 (AZD, a CDK9 inhibitor, 400 nM) for the indicated times. (FIG. 32B) Cells were treated with various concentrations of voruciclib or AZD4573 for the indicated time. Relative densitometry values are indicated.

[7] = PK of voruciclib, daily dosing continuously (Table 4); type: in vivo; conditions: human, plasma, oral; for Vd/F: read-out: Vz/F; for half-life: read-out: t½ (converted); for Tmax: median
From the text: Voruciclib half life is designated as t½ in the tables (expressed in hours).
Voruciclib volume of distribution is designated as Vz/F (expressed in liters).

[8] = 2 weeks on/i week off schedule, 75 to 850 mg, 29 pts
[9] = Phase 1 monotherapy studies in solid tumors (both schedules)
[10] = 75 mg, Day 1, daily dosing continuously, mean
[11] = 75 mg, Day 15, daily dosing continuously, mean
[12] = 150 mg, Day 1, daily dosing continuously, mean
[13] = 150 mg, Day 15, daily dosing continuously, n = 1
[14] = 250 mg, Day 1, daily dosing continuously, mean
[15] = 250 mg, Day 15, daily dosing continuously, mean
[16] = 350 mg, Day 1, daily dosing continuously, mean
[17] = 350 mg, Day 15, daily dosing continuously, mean
[18] = 500 mg, Day 1, daily dosing continuously, mean
[19] = 500 mg, Day 15, daily dosing continuously, mean

myelosuppression [2, 9]: no evidence of myelosuppression
Kp [4]: > 5
AUC(0-inf) [7, 10]: 3420 ng·h/mL
Cmax [7, 10]: 125 ng/mL
AUC(0-t) ([7]; 75 mg, Day 1, daily dosing continuously, mean, read-out: AUC0-24): 1730 ng·h/mL
AUC(0-t) ([7]; 75 mg, Day 1, daily dosing continuously, mean, read-out: AUC0-t): 1730 ng·h/mL
Vd/F [7, 10]: 860 L
half-life [7, 10]: 21.8 h
Tmax ([7]; 75 mg, Day 1, daily dosing continuously): 4 h
AUC(0-inf) [7, 11]: 27200 ng·h/mL
Cmax [7, 11]: 331 ng/mL
AUC(0-t) ([7]; 75 mg, Day 15, daily dosing continuously, mean, read-out: AUC0-24): 5570 ng·h/mL
AUC(0-t) ([7]; 75 mg, Day 15, daily dosing continuously, mean, read-out: AUC0-t): 5570 ng·h/mL
Vd/F [7, 11]: 982 L
half-life [7, 11]: 359 h
Tmax ([7]; 75 mg, Day 15, daily dosing continuously): 2 h
AUC(0-inf) [7, 12]: 15600 ng·h/mL
Cmax [7, 12]: 258 ng/mL
AUC(0-t) ([7]; 150 mg, Day 1, daily dosing continuously, mean, read-out: AUC0-24): 4850 ng·h/mL
AUC(0-t) ([7]; 150 mg, Day 1, daily dosing continuously, mean, read-out: AUC0-t): 4850 ng·h/mL
Vd/F [7, 12]: 579 L
half-life [7, 12]: 39.6 h
Tmax ([7]; 150 mg, Day 1, daily dosing continuously): 6 h
Cmax ([7]; 150 mg, Day 15, daily dosing continuously, mean): 755 ng/mL
AUC(0-t) ([7]; 150 mg, Day 15, daily dosing continuously, mean, read-out: AUC0-24): 16600 ng·h/mL
AUC(0-t) ([7]; 150 mg, Day 15, daily dosing continuously, mean, read-out: AUC0-t): 16600 ng·h/mL
Tmax ([7]; 150 mg, Day 15, daily dosing continuously): 6 h
AUC(0-inf) [7, 13]: 164000 ng·h/mL
Vd/F [7, 13]: 174 L
half-life [7, 13]: 132 h
AUC(0-inf) [7, 14]: 16400 ng·h/mL
Cmax [7, 14]: 472 ng/mL
AUC(0-t) ([7]; 250 mg, Day 1, daily dosing continuously, mean, read-out: AUC0-24): 6110 ng·h/mL
AUC(0-t) ([7]; 250 mg, Day 1, daily dosing continuously, mean, read-out: AUC0-t): 6110 ng·h/mL
Vd/F [7, 14]: 766 L
half-life [7, 14]: 34.4 h
Tmax ([7]; 250 mg, Day 1, daily dosing continuously): 4 h
AUC(0-inf) [7, 15]: 54500 ng·h/mL
Cmax [7, 15]: 1050 ng/mL
AUC(0-t) ([7]; 250 mg, Day 15, daily dosing continuously, mean, read-out: AUC0-24): 18500 ng·h/mL
AUC(0-t) ([7]; 250 mg, Day 15, daily dosing continuously, mean, read-out: AUC0-t): 18500 ng·h/mL
Vd/F [7, 15]: 259 L
half-life [7, 15]: 38.8 h
Tmax ([7]; 250 mg, Day 15, daily dosing continuously): 4 h
AUC(0-inf) [7, 16]: 134000 ng·h/mL
Cmax [7, 16]: 623 ng/mL
AUC(0-t) ([7]; 350 mg, Day 1, daily dosing continuously, mean, read-out: AUC0-24): 10400 ng·h/mL
AUC(0-t) ([7]; 350 mg, Day 1, daily dosing continuously, mean, read-out: AUC0-t): 10400 ng·h/mL
Vd/F [7, 16]: 155 L
half-life [7, 16]: 129 h
Tmax ([7]; 350 mg, Day 1, daily dosing continuously): 6 h
AUC(0-inf) [7, 17]: 164000 ng·h/mL
Cmax [7, 17]: 1490 ng/mL
AUC(0-t) ([7]; 350 mg, Day 15, daily dosing continuously, mean, read-out: AUC0-24): 26700 ng·h/mL
AUC(0-t) ([7]; 350 mg, Day 15, daily dosing continuously, mean, read-out: AUC0-t): 26700 ng·h/mL
Vd/F [7, 17]: 77.6 L
half-life [7, 17]: 72.5 h
Tmax ([7]; 350 mg, Day 15, daily dosing continuously): 4 h
AUC(0-inf) [7, 18]: 41000 ng·h/mL
Cmax [7, 18]: 1140 ng/mL
AUC(0-t) ([7]; 500 mg, Day 1, daily dosing continuously, mean, read-out: AUC0-24): 16400 ng·h/mL
AUC(0-t) ([7]; 500 mg, Day 1, daily dosing continuously, mean, read-out: AUC0-t): 16400 ng·h/mL
Vd/F [7, 18]: 72.5 L
half-life [7, 18]: 24.8 h
Tmax ([7]; 500 mg, Day 1, daily dosing continuously): 6 h
AUC(0-inf) [7, 19]: 108000 ng·h/mL
Cmax [7, 19]: 2250 ng/mL
AUC(0-t) ([7]; 500 mg, Day 15, daily dosing continuously, mean, read-out: AUC0-24): 40500 ng·h/mL
AUC(0-t) ([7]; 500 mg, Day 15, daily dosing continuously, mean, read-out: AUC0-t): 40500 ng·h/mL
Vd/F [7, 19]: 51 L
half-life [7, 19]: 42.4 h
Tmax ([7]; 500 mg, Day 15, daily dosing continuously): 2 h
SMILES: CN1CC[C@@H](c2c(O)cc(O)c3c(=O)cc(-c4ccc(C(F)(F)F)cc4Cl)oc23)[C@@H]1CO [Voruciclib, (+)-trans-2-(2-Chloro-4-trifluoromethylphenyl)-5,7-dihydroxy-8-(2-hydroxymethyl-1-methylpyrrolidin-3-yl)-chromen-4-one]
tumor growth inhibition relative to control [1]: > 50%
best response [2, 8]: 1 PR and 8 SD lasting 2 to 6 months
disease control rate [2, 8]: 41%
most common AEs [2, 9]: most common AEs involved GI tract
viability (growth in vitro) [3]: decreased viability in all cell lines tested
tumor growth inhibition relative to control [5]: > 50%
decrease in total MYC protein ([6]; 5 or 15 min): no decrease in total MYC protein
reduction in total MYC ([6]; 60 min): 10%
reduction in total MYC ([6]; 240 min): 50%
decrease in pSer62 (MYC) ([6]; after 5 min): 60%
decrease in pSer62 (MYC) ([6]; by 60 min): 80%
